Laboratory results published in patent US10857180B2, “Pharmaceutical composition for improving health, cure abnormalities and degenerative disease, achieve anti-aging effect of therapy and therapeutic effect on mammals and method thereof” (priority 2014, dated 2020).
In brackets after ≈: the same amount, converted by molar mass. Read-outs that look alike come from different tables or passages of the source.

Assays:
A-549 cell line = assay: Scratch assay, A-549 cells
Protocol: (§2) The cells of A-549, A-431, NRK, HaCaT, MM-4, normal fibroblasts (derived from the Bank of Cell Lines from human and animal tissues, R. E. Kavetsky Institute of Experimental Pathology, Oncology and Radiobiology, National Academy of Sciences of Ukraine) were cultured in complete culture medium RPMI 1640/DMEM (PAA, Austria) (depending on the cell type) supplemented with 10% fetal calf serum (PAA, Austria) and incubated in 5% CO2 humidified atmosphere at 37° C. The culture medium was replaced in 2 to 3 days and the cells were passaged in 4 to 5 days.
(§3) Analysis of the influence of the components under study on the cell migration rate was performed using the scratch assay method. Cells (5×10^4/well) were seeded into the wells of a 12-well plate in 2 repeats in RPMI-1640/DMEM culture medium supplemented with 10% PBS, 40 mcg/ml of gentamicin and incubated in 5% CO2 humidified atmosphere at 37° C. for 24 hours.
(§4) The plate was incubated in a CO2 incubator for additional 48 hours. After the cells formed a dense monolayer it was damaged (by making a “scratch”) and the growth medium was replaced to remove cell debris and smooth the edges of the “scratch.” The rate of cell migration was analyzed using an inverted microscope and by photographing cells in the area of injury. The migration activity of cells was fixed at several time points (depending on the cell line analyzed). The microphotomicrographs were analyzed and the cell incubation time needed to restore the monolayer was determined for all experimental groups.

[1] = tested on: human melanoma tumor cells (MM-4 cell line); assay: Scratch assay, MM-4 cells; format: cell-based; settings: Doxorubicin at 2 concentrations (0.1 and 0.01 mcg/ml)
Protocol: as §2
(§5) Analysis of the influence of the components under study on the cell migration rate was performed using the scratch assay method. […]
(§6) The plate was incubated in a CO2 incubator for additional 48 hours. After the cells formed a dense monolayer it was damaged (by making a “scratch”) and the growth medium was replaced to remove cell debris and smooth the edges of the “scratch.” The rate of cell migration was analyzed using an inverted microscope and by photographing cells in the area of injury. The migration activity of cells was fixed at several time points (depending on the cell line analyzed). The microphotomicrographs were analyzed and the cell incubation time needed to restore the monolayer was determined for all experimental groups. […]

[2] = tested on: normal rat kidney cells (NRK cell line); assay: Effect on normal rat kidney cells versus Doxorubicin; settings: for live cells: 16 mcg/ml
Description: An immortalized cell line is a stable, capable of unlimited proliferation cell line that consists of cells with […] in culture.

[3] = tested on: renal cell carcinoma (PA) cells; assay: Viability of PA tumor cells (trypan blue, crystal violet; live-dead); format: cell-based, rat; settings: for IC50: Rattus norvegicus; for dose for 50% live, 50% dead: natural isotope distribution
Description: To make the analysis, the cell suspension, after it was exposed to the action of materials, in a volume of 20 mcl was mixed with 20 mcl of trypan blue solution and resuspended. The obtained solution was placed in a hemocytometer chamber for visual analysis and quantitative estimation of the cells. To make the quantitative estimation of the cells, they were separated from the substrate using Versene solution and counted by staining cells with trypan. A change in the color of a cell was indicative of the violation of intactness of the cell membrane, and the more pronounced was the coloration, the less viable the cell was. […] They are easily distinguishable from dark damaged cells and easily identified with ordinary light microscope.
Alluding to the above, staining the Cells with Crystal Violet and their Quantitative Analysis will be discussed. Utilization of this method of assessment in the experiment makes it possible to quantify cells classified according to the living-dead criterion. The method is based on statistical evaluation of cells able to adhere to the substrate (to the plastic plate), cells capable of further proliferation. The criterion of the evaluation is the degree of optical permeability of a well with the cell sediment for a luminous flux of a certain wavelength. Removal of the culture medium from the wells is also accompanied by removal of non-adhering and unstained cells from the substrate, and adhesion and staining of the residue left on the substrate provides a quantitative characteristic of the number of cells which are capable of further division and multiplication.
Alluding to the above, viable tumor cells capable of further proliferation were fixed to the plastic surface and stained blue (after they were exposed to the action of components with natural distribution of isotopes) using the dye powder dissolved in 70% methanol solution. After 10 minutes the dye was removed from the wells with a micropipette and the cells were thoroughly rinsed three times with clean running water. The cell sediment fixed by the dye was dissolved with ethanol followed by determination of its concentration (which is indicative of the number of viable cells) and fixed via multi-well spectrophotometer with an excitation wave 540 nm in length.
Analysis of the effect of all components on the renal cell carcinoma (PA) was conducted to determine the relationship between the amount of the preparation (concentration characteristics of the component) and the quantitative characteristics of the cells. Assessment of the effect of the components was carried out on 2 concentration models with 30 and 300 thousand original tumor cells. After the cells were cultured, cell suspensions were prepared in the plates with the culture medium and an effect of the preparations (in various concentrations) on the tumor cells was assessed. The experiment was started with the concentration of 10 mg of the active substance per 1 ml of the solvent (saline with 5% glucose).
After the action of components with natural isotope distribution on PA tumor cells (in all 9 concentration dilutions of the preparations), they were stained with trypan blue. Staining cells (after the effect of the components) in blue is indicative of the respiratory impairment of the cells, which allows of classifying them as non-viable tumor units. The part of the cells remained uncolored is characterized as viable with the ability for further proliferation. […] The assessment was performed on 14 plates with 300 thousand cells in each well by counting the number of viable cells in the Goryaev chamber. Quantitative analysis of the cells was performed visually every 10 hours of the experiment.

[4] = tested on: human epidermoid carcinoma cells (A-431 cell line); assay: Scratch assay, A-431 cells
Protocol: as §2, §5, §6

[5] = tested on: stem cells derived from rat fibroblasts (RF); format: cell-based
[6] = tested on: healthy human skin cells (HaCaT cell line); assay: Scratch assay, HaCaT cells; format: cell-based; settings: Doxorubicin 15 ng/ml and 5 ng/ml
Protocol: as §2, §5, §6

[7] = tested on: normal rat kidney cells (NRK cell line); assay: Scratch assay, NRK cells; format: cell-based; settings: Doxorubicin 15 ng/ml; control 30 hours
Protocol: as §2, §3, §4

[8] = tested on: renal cell carcinoma (PA) cells; assay: Immunocytochemistry (H-Score) of PA cells; format: cell-based, rat
Protocol: When making the immunocytochemistry (ICC) assay, cells on microscope glasses (cytospin preparations) were fixed in the solution (methanol+acetone 1:1) for 2 hours at t 20° C. and incubated with 1% solution of bovine serum albumin (BSA) for 20 minutes. Then the monoclonal antibodies—CD44 (Diagnostic BioSystems), E-cadherin (ThermoScientific), N-cadherin (NeoMarker, BioLegend)—were applied for 60 minutes, after which the Poly Vue imaging system conjugated with peroxidase was used and the enzyme activity was detected using diaminobenzidine (ThermoScientific) as a substrate.
(§1) After the immunocytochemical reaction the preparations were washed with water and counterstained with hematoxylin-eosin (for 15-30 seconds). The results were analyzed by counting cells with expression (brown colored cells), using a light microscope and were assessed using the classical H-Score method: S=1×A+2×B+3×C, where S is the H-Score index giving a range of 0 (protein is not detected) to 300 (high-level expression in 100% of the cells); A is the percentage of weakly stained cells, B is the percentage of moderately stained cells and C is the percentage of strongly stained cells.

[9] = tested on: normal rat kidney cells (NRK line); assay: Immunocytochemistry of NRK cells; format: cell-based
Protocol: When making the immunocytochemistry (ICC) assay, cells on microscope glasses (cytospin preparations) were fixed in the solution (methanol+acetone 1:1) for 2 hours at t 20° C. and incubated with 1% solution of bovine serum albumin (BSA) for 20 minutes. Then the monoclonal antibodies-CD44 (Diagnostic BioSystems), E-cadherin (ThermoScientific), N-cadherin (NeoMarker, BioLegend), SLUG (GeneTex)—were applied for the time period specified by the manufacturer (30 to 60 minutes), after which the Poly Vue imaging system conjugated with peroxidase was used and the enzyme activity was detected using diaminobenzidine (ThermoScientific) as a substrate. After the immunocytochemical reaction the preparations were washed with water and counterstained with hematoxylin-eosin (for 15 to 30 seconds).
as §1, with “The” for “After the immunocytochemical reaction the preparations were washed with water and counterstained with hematoxylin-eosin (for 15-30 seconds). The”, “cells)” for “cells),”, “microscope,” for “microscope”, “staining” for “stained”

[10] = Zn sulfate 80 mcg/ml, trypan blue

## COc1cccc2c1C(=O)c1c(O)c3c(c(O)c1C2=O)C[C@@](O)(C(=O)CO)C[C@@H]3O[C@H]1C[C@H](N)[C@H](O)[C@H](C)O1 [Doxorubicin]
A-549 cell line; Doxorubicin 0.02 mcg/ml
  time of restoration of the cell monolayer: 60 h
A-549 cell line; Doxorubicin 0.2 mcg/ml
  time of restoration of the cell monolayer: < 24 h
A-549 cell line; Doxorubicin (2 mcg/ml per FIG. 113-116)
  time of full restoration of the cell monolayer: 24 h
[1]
  period of closing of the gap: 48 h
[2]; 3 to 0.01 mcg/ml
  effect on normal NRK cells: causing death of normal NRK cells
[2]; within 30 min
  live cells: live cells are virtually absent
[2]; within 48 hours
  live cells: live cells are absent
[2]; 400 to 16 mcg/ml, 48 hours
  effect on normal NRK cells: complete death
[3]; Doxorubicin 0.64 mcg/ml
  dead cells: 39%
  live cells: 61%
[3]; Doxorubicin 16 mcg/ml
  dead cells: 95%
  live cells: 5%
[3]; crystal violet and trypan blue, read-out: concentration that kills 50% of the tumor cells
  IC50: 3.2 µg/mL (≈ 5.89 µM)
[3]; read-out: dose that killed 50% of tumor cells
  IC50: 3.2 µg/mL (≈ 5.89 µM)
[4]; Doxorubicin 0.02 mg/ml
  time for the cell monolayer repair: 48 h
[4]; Doxorubicin 0.1 mcg/ml, control 48 hours
  time to close up the cellular gap: 45 h
[5]; Doxorubicin 15 ng/ml or 5 ng/ml
  time of restoration of the cell interval: > 72 h
[5]; Doxorubicin 15 ng/ml, within 96 hours after administration
  death of cells: 95%
[6]
  cell migration rate: inhibition of the cell migration rate
[7]
  time of restoration of the damaged monolayer: 72 h

## O=S(=O)([O-])[O-].[Zn+2] [Zn]
[3]
  dose for 50% kill, times as high as Doxorubicin EBEWE: 100 times
[3]; Zn sulfate 16 mcg/ml
  dead tumor cells: 7%
  live tumor cells: 93%
[3]; [10]
  dead tumor cells: 75%
  live tumor cells: 25%

## O=S(=O)([O-])[O-].[Mg+2] [Mg]
[3]
  dose for 50% kill, times as high as Doxorubicin EBEWE: 1600 times
  dose for 50% live, 50% dead: about 5 mg

## [Cl-].[K+] [K]
[3]
  dose for 50% live, 50% dead: about 2 mg

## O=S(=O)([O-])[O-].[64Zn+2] [^64Zn—Z2]
[8]; 3.2 mcg/ml
  CD44 marker positive cells, H-Score scale: 118 units
[8]; ^64Zn—Z2 3.2 and 0.128 mcg/ml
  N-cadherin level: does not change
  number of E-cadherin-positive cells: grows
[8]; dose D1 0.128 mcg/ml
  E-cadherin-positive cells, H-Score scale: 300
[9]
  phenotype of normal cells: has not changed
